The structures appear in SMILES notation.

T1 sequence (O94782 whole entry): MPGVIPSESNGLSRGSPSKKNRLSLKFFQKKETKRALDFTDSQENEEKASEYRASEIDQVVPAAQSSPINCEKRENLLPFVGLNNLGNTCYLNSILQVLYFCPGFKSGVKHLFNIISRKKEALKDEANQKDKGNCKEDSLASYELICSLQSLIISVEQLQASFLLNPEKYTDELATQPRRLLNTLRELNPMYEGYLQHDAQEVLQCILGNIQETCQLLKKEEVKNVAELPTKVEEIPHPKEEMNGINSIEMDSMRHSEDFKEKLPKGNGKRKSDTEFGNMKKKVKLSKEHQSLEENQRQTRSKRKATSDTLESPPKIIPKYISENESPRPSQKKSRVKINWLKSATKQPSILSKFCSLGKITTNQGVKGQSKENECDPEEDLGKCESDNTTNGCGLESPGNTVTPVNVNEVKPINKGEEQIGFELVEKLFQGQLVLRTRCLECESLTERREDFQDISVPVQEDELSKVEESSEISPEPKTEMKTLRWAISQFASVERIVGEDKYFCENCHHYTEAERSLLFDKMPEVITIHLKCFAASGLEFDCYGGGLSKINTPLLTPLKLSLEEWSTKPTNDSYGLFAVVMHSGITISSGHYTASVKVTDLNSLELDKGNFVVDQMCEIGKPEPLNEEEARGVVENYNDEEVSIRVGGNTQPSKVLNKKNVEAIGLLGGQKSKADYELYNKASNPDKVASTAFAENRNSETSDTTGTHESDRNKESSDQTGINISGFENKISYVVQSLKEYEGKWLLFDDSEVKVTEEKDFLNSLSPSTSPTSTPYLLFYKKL
T1 sequence (Q8TAF3 whole entry partner): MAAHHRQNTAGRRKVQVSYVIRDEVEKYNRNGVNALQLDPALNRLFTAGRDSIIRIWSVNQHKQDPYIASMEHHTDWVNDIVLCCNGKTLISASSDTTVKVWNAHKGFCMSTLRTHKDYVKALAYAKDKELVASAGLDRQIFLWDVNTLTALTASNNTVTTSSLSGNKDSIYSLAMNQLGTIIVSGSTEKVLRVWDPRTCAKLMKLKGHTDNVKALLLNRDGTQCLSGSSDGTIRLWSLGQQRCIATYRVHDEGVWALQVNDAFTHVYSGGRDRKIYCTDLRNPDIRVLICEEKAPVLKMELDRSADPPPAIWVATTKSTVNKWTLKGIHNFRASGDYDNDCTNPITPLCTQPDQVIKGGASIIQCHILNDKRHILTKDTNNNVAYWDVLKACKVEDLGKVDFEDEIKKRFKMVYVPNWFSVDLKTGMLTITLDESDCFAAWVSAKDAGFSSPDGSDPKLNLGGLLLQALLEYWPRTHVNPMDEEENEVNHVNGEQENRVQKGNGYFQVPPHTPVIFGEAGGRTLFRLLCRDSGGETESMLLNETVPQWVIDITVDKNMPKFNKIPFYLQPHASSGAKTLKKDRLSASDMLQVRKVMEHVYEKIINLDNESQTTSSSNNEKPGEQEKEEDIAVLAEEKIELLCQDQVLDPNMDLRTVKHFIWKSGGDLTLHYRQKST

The assay concerns the target T1, Recombinant human His6-USP1/His6-UAF1 complex protein (Homo sapiens, UniProt O94782).
T1 construct: His6; purchased R&D E-568-050
In words: In vitro inhibitory activity against USP1 (Ubiquitin Rhodamine 110 fluorescence detection, 384-well plate). As to conditions: Ub-Rho substrate, 1 hour pre-incubation, read after 30 minutes. The format is biochemical. Here is the method:
Test Example 1: In vitro inhibitory activity against USP1 […]
Experimental object: to screen compounds with inhibitory activity against USP1 […] by a fluorescence detection method, using a 384-well plate.
Experimental materials: Recombinant human His6-USP1/His6-UAF1 complex protein (R&D, Cat. No.: E-568-050), Ubiquitin Rhodamine 110 protein (Ub-Rho) (R&D, Cat. No.: U-555-050), 384-well plate (Perkin Elmer, Cat. No.: 6007279); all compounds were dissolved in 100% DMSO to obtain 50 mM stock solutions.
• 1) Preparation of 1 × assay buffer: 1 × assay buffer (modified Tris buffer) was prepared; • 2) Dilution of compounds: the compounds were transferred to an assay plate via Echo.
One may read the IC50 as the concentration that gives 50% inhibition. As to `COc1cnc(-c2ccccc2C(C)C)nc1NCc1ccc(OCc2ccccn2)cc1` [Example 67, 2-(2-Isopropylphenyl)-5-methoxy-N-(4-(pyridin-2-ylmethoxy)benzyl)pyrimidin-4-amine], the half-maximal inhibitory concentration (IC50) turned out to be 5.3 nM. As for `COc1cnc(-c2c(OC)ncnc2C2CC2)nc1NCc1ccc2c(c1)CCN(C(C)C)C2=O` [Example 97, 6-(((4'-Cyclopropyl-5,6'-dimethoxy-[2,5'-bipyrimidin]-4-yl)amino)methyl)-2-isopropyl-3,4-dihydroisoquinolin-1(2H)-one], the IC50 was 263 nM. For `COc1cnc(-c2c(OC)ncnc2C2(F)CC2)nc1NCC1CCC(c2nc(C(F)(F)F)cn2C2CC2)CC1` [Example S38, N-(((1R,4R)-4-(1-cyclopropyl-4-(trifluoromethyl)-1H-imidazol-2-yl)cyclohexyl)methyl)-4'-(1-fluorocyclopropyl)-5,6'-dimethoxy-[2,5'-bipyrimidin]-4-amine] the value was 220 nM; for `Cc1ncn(C(C)C)c1-c1nc(NCc2ccc(-c3nc(C(F)(F)F)cn3C)cc2)c2occc2n1` [Example 149, 2-(1-Isopropyl-4-methyl-1H-imidazol-5-yl)-N-(4-(1-methyl-4-(trifluoromethyl)-1H-imidazol-2-yl)benzyl)furo[3,2-d]pyrimidin-4-amine], 69.2 nM. The value for `COc1cnc(-c2c(C)cnn2C2CC2)nc1N(O)Cc1ccc(-c2nc(C(F)(F)F)cn2C)cc1` [Example 205, N-(2-(1-cyclopropyl-4-methyl-1H-pyrazol-5-yl)-5-methoxypyrimidin-4-yl)-N-(4-(1-methyl-4-(trifluoromethyl)-1H-imidazol-2-yl)benzyl)hydroxylamine] was 43 nM. Consider `COc1cnc(-c2c(OC)ncnc2C2CC2)nc1NCc1ccc(-c2nc(C(F)(F)F)cn2C)cc1` [Example 29, 4'-Cyclopropyl-5,6'-dimethoxy-N-(4-(1-methyl-4-(trifluoromethyl)-1H-imidazol-2-yl)benzyl)-[2,5'-bipyrimidin]-4-amine], for which the IC50 is 4.8 nM. As for `COc1cnc(-c2c(C)noc2C(C)C)nc1NCc1ccc(-c2nc(C(F)(F)F)cn2C)cc1` [Example 188, 2-(5-Isopropyl-3-methylisoxazol-4-yl)-5-methoxy-N-(4-(1-methyl-4-(trifluoromethyl)-1H-imidazol-2-vl)benzyl)pyrimidin-4-amine], the IC50 was determined as 15 nM. For the compound `CC(C)c1ccccc1-c1ncc2c(n1)N(CC1CCC(c3nc(C(F)(F)F)cn3C)CC1)CCO2` [Example 13, 2-(2-Isopropylphenyl)-8-(((1R,4R)-4-(1-methyl-4-(trifluoromethyl)-1H-imidazol-2-yl)cyclohexyl)methyl)-7,8-dihydro-6H-pyrimido [5,4-b][1,4] oxazine], the IC50 is 1.9 nM. Regarding `CC(C)c1ccccc1-c1ncc2c(n1)N(C[C@H]1CC[C@@H](c3nc(C(F)(F)F)cn3C)CC1)CCO2` [Example 14, 2-(2-Isopropylphenyl)-8-(((1s,4s)-4-(1-methyl-4-(trifluoromethyl)-1H-imidazol-2-yl)cyclohexyl)methyl)-7,8-dihydro-6H-pyrimido[5,4-b][1,4] oxazine], the IC50 is 60 nM. In the case of `COc1cnc(-c2cncnc2C2CC2)nc1NCc1ccc(-c2nc(C(F)F)cn2C)cc1` [Example 195, 4'-Cyclopropyl-N-(4-(4-(difluoromethyl)-1-methyl-1H-imidazol-2-yl)benzyl)-5-methoxy-[2,5'-bipyrimidin]-4-amine], the 50% inhibitory concentration (IC50) is 243 nM. In the case of `COC1CC(Oc2ccc(CNc3nc(-c4ccccc4C(C)C)nc4ccoc34)cc2)C1` (centres unmarked) [Example 80, 2-(2-Isopropylphenyl)-N-(4-(3-methoxycyclobutoxy)benzyl)furo[3,2-d]pyrimidin-4-amine], the IC50 is 26 nM. As to `COc1ncnc(C2CC2)c1-c1nc(NCc2ccc3c(c2)CCN(C(C)C)C3=O)c2occc2n1` [Example 115, 6-(((2-(4-Cyclopropyl-6-methoxypyrimidin-5-yl)furo[3,2-d]pyrimidin-4-yl)amino)methyl)-2-isopropyl-3,4-dihydroisoquinolin-1(2H)-one], the IC50 turned out to be 77 nM. Take `COc1ncnc(C2CC2)c1-c1ncc(OC(C)C)c(NCC23CCC(c4ccc(C(F)(F)F)cn4)(CC2)CC3)n1` [Example 112, 4'-Cyclopropyl-5-isopropoxy-6'-methoxy-N-((4-(5-(trifluoromethyl)pyridin-2-yl)bicyclo[2.2.2]octan-1-yl)methyl)-[2,5'-bipyrimidin]-4-amine]: the IC50 was 266 nM. `CC(C)c1ccccc1-c1ncc(C(F)(F)F)c(NCc2ccc(-c3ccccn3)cc2)n1` [Example 16, 2-(2-Isopropylphenyl)-N-(4-(pyridin-2-yl)benzyl)-5-(trifluoromethyl)pyrimidin-4-amine]: the IC50 came out at 30.6 nM. For `COc1cnc(-c2c(OC)ncnc2C2CC2)nc1N(Cc1ccc(-c2nc(C(F)(F)F)cn2C)cc1)C1CCOC1` (centres unmarked) [Example 140, 4'-Cyclopropyl-5,6'-dimethoxy-N-(4-(1-methyl-4-(trifluoromethyl)-1H-imidazol-2-yl)benzyl)-N-(tetrahydrofuran-3-yl)-[2,5'-bipyrimidin]-4-amine] the value was 73 nM; for `COc1cnc(-c2c(C)ncnc2OC2CC2)nc1NCC12CCC(c3nc(C(F)(F)F)cn3C)(CC1)CC2` [Example S19], 300 nM; for `CC(C)c1ccccc1-c1nc(NCc2ccc3c(c2)CCN(C(C)C)C3=O)c2occc2n1` [Example 78, 2-Isopropyl-6-(((2-(2-isopropylphenyl)furo[3,2-d]pyrimidin-4-yl)amino)methyl)-3,4-dihydroisoquinolin-1(2H)-one], 6.4 nM.

For the compound `CC(C)c1ccccc1-c1ncc(C(F)(F)F)c(NCC2CCN(c3nc(C(F)(F)F)cn3C)CC2)n1` [Example 25, 2-(2-Isopropylphenyl)-N-((1-(1-methyl-4-(trifluoromethyl)-1H-imidazol-2-yl)piperidin-4-yl)methyl)-5-(trifluoromethyl)pyrimidin-4-amine], the IC50 was determined as 3.7 nM. Consider `COc1ncnc(C2CC2)c1-c1ncc2c(n1)N(Cc1ccc(-c3ccccn3)cc1)CCO2` [Example 9, 2-(4-Cyclopropyl-6-methoxypyrimidin-5-yl)-8-(4-(pyridin-2-yl)benzyl)-7,8-dihydro-6H-pyrimido[5,4-b][1,4]oxazine], for which the IC50 was 35 nM. Turning to `COc1cnc(-c2c(OC)cnn2C(C)C)nc1N(C)CC1CCN(c2ccccn2)CC1` [Example 177, 2-(1-Isopropyl-4-methoxy-1H-pyrazol-5-yl)-5-methoxy-N-methyl-N-((1-(pyridin-2-yl)piperidin-4-yl)methyl)pyrimidin-4-amine], the IC50 was 75 nM.

For `COc1cnc(-c2c(C)noc2C(C)C)nc1NCC1CCN(c2nc(C(F)(F)F)cn2C)CC1` [Example 187, 2-(5-Isopropyl-3-methylisoxazol-4-yl)-5-methoxy-N-((1-(1-methyl-4-(trifluoromethyl)-1H-imidazol-2-yl)piperidin-4-yl)methyl)pyrimidin-4-amine], the half-inhibitory concentration (IC50) stood at 23.5 nM.

In the case of `COc1ncnc(C2CC2)c1-c1nc(NCc2ccc3c(c2)CCN(C)C3=O)c2occc2n1` [Example 114, 6-(((2-(4-Cyclopropyl-6-methoxypyrimidin-5-yl)furo[3,2-d]pyrimidin-4-yl)amino)methyl)-2-methyl-3,4-dihydroisoquinolin-1(2H)-one], the IC50 came to 648 nM. In the case of `COc1ncnc(C2CC2)c1-c1ncc2c(n1)N(CC1CCN(c3nc(C(F)(F)F)cn3C)CC1)C(=O)CO2` [Example 30, 2-(4-Cyclopropyl-6-methoxypyrimidin-5-yl)-8-((1-(1-methyl-4-(trifluoromethyl)-1H-imidazol-2-yl)piperidin-4-yl)methyl)-6H-pyrimido[5,4-b][1,4]oxazin-7(8H)-one], the IC50 was 37 nM. In the case of `COc1cnc(-c2c(OC)cnn2C2CC2)nc1NCC1CCN(c2nc(C(F)(F)F)cn2C)CC1` [Example 184, 2-(1-Cyclopropyl-4-methoxy-1H-pyrazol-5-yl)-5-methoxy-N-((1-(1-methyl-4-(trifluoromethyl)-1H-imidazol-2-yl)piperidin-4-yl)methyl)pyrimidin-4-amine], the IC50 was found to be 94 nM. On to `COc1cnc(-c2cccc3c2N(C)CC3)nc1NCc1ccc(-n2nc(C(F)(F)F)cc2C)cc1` [Example 146], for which the IC50 came out at 18 nM. For `COc1cnc(-c2cccc3ccn(C)c23)nc1NCc1ccc(-c2nc(C(F)(F)F)cn2C)cc1` [Example 143, 5-Methoxy-2-(1-methyl-1H-indol-7-yl)-N-(4-(1-methyl-4-(trifluoromethyl)-1H-imidazol-2-yl)benzyl)pyrimidin-4-amine], the IC50 was determined as 31 nM. With `COc1cnc(-c2cncnc2C2CC2)nc1N(C)Cc1ccc(-c2nc(C(F)(F)F)cn2C)cc1` [Example 193, 4'-Cyclopropyl-5-methoxy-N-methyl-N-(4-(1-methyl-4-(trifluoromethyl)-1H-imidazol-2-yl)benzyl)-[2,5'-bipyrimidin]-4-amine], the IC50 amounted to 87 nM. As to `COc1cnc(-c2c(OC)cnn2C2CC2)nc1NCc1ccc(-c2ccccn2)cc1` [Example 183, 2-(1-Cyclopropyl-4-methoxy-1H-pyrazol-5-yl)-5-methoxy-N-(4-(pyridin-2-yl)benzyl)pyrimidin-4-amine], the IC50 was 164 nM. For the compound `[2H]C([2H])([2H])Oc1ncnc(C2CC2)c1-c1ncc(OC)c(N(C)CC23CCC(c4nc(C(F)(F)F)cn4C)(CC2)CC3)n1` [Example S9, 4'-Cyclopropyl-5-methoxy-6'-(methoxy-D3)-N-methyl-N-((4-(1-methyl-4-(trifluoromethyl)-1H-imidazol-2-yl)bicyclo[2.2.2]oct-1-yl)methyl)-[2,5'-bipyrimidin]-4-amine], the IC50 was 3.5 nM.

Values taken from patent EP4741386A1 (Jiangsu Yahong Meditech Co., Ltd., priority 2023, dated 2025).
